Measurements reported in patent US5493007A, “Platelet aggregation inhibitors having high specificity for GPIIBIIIA” (Genentech, Inc., priority 1994, dated 1996).
“And” between values parts separate entries of the source, which are not always exact repeats. Equal entries are not always repeated. Where two headings read alike, the source gives them in different places. Where a SMILES comes first, the peptide text is derived from it. Bridges are numbered along the chain shown (N, C = ends). [ ]: non-standard residue; d: D form. The star is where a group is joined. Pen = CC(C)(S)[C@H](N)C(=O)O; dOrn = NCCC[C@@H](N)C(=O)O; Orn = NCCC[C@H](N)C(=O)O; NH(CH2)5NH2 = NCCCCCN*; NH(CH2)4NH2 = NCCCCN*; Ava = NCCCCC(=O)O

Columns and labels:
GP IIb IIIa = GP IIb IIIa (Homo sapiens, UniProt P05106+P08514); test: Fibrinogen-GP IIb IIIa Receptor ELISA Binding Assay; design: from tissue; host or cells: outdated human platelets; conditions: purified human platelet GP IIb IIIa, fibrinogen-coated plates; read-out: ELISA IC50 Fibrinogen GPIIb IIIa
Sequence of GP IIb IIIa (P08514 32-887 limits assumed): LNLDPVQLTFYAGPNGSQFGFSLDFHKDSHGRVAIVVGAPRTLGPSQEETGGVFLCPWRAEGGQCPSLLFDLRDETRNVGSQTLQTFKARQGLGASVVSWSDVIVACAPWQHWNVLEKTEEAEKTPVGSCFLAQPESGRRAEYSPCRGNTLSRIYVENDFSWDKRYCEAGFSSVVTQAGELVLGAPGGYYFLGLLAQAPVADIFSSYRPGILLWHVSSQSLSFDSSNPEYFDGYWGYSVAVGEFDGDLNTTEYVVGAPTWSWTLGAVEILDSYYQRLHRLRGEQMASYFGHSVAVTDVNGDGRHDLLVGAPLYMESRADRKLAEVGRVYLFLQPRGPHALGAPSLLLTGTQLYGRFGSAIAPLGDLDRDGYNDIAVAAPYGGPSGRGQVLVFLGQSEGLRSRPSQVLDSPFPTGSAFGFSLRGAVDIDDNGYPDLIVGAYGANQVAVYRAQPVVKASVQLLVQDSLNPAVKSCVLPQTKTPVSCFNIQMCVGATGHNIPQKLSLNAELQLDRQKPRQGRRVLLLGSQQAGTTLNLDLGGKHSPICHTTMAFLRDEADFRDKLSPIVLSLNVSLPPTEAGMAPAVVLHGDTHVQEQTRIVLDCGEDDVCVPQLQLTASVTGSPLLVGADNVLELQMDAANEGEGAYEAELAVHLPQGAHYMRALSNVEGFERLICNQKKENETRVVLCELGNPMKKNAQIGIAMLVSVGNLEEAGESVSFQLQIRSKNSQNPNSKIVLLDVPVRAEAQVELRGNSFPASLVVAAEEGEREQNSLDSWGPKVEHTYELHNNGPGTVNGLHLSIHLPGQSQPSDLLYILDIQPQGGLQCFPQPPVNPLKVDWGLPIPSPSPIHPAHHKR
Sequence of GP IIb IIIa (P08514 891-1039 partner limits assumed): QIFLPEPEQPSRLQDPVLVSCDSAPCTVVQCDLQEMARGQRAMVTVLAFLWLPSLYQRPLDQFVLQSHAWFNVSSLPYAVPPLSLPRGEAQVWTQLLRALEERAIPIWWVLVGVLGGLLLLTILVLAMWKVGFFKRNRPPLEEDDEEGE
Sequence of GP IIb IIIa (P05106 27-788): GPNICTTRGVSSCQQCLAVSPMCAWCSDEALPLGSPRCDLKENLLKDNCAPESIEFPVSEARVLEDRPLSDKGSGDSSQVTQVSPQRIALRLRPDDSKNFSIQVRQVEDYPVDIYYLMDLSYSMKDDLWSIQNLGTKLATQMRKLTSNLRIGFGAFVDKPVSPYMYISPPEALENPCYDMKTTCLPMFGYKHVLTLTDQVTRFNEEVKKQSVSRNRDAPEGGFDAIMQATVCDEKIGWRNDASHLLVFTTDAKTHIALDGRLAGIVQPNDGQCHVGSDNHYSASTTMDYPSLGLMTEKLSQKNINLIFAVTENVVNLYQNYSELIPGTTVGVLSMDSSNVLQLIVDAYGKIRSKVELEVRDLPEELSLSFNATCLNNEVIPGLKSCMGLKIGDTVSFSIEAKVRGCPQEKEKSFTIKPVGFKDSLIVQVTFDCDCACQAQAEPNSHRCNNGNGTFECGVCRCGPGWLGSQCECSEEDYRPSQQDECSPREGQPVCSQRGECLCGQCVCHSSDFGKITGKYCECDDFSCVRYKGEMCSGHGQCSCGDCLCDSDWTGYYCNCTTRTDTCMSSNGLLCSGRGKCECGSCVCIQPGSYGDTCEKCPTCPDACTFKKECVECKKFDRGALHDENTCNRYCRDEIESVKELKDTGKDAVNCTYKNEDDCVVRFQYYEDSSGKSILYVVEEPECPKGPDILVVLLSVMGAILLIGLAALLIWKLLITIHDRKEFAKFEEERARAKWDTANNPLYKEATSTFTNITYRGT
Experimental: The method used is essentially that described in Nachman and Leung (J. Clin. Invest., 69:263-269 [1982]). The GP IIb IIIa is essentially purified as described in Fitzgerald et al., (Anal. Biochem. 151:169-177 [1985]).
Outdated human platelets are washed 3 times with 10 mM tris-HCl, 150 mM NaCl (TBS), 1 mM EDTA, pH 7.5, and centrifuged at 2000×g to pellet cells. Cells are lysed in 5 pellet volumes of TBS, 1% Triton X-100, 1 mM Ca2 Cl2, and followed by centrifugation at 30,000×g. The supernatant fraction is collected and the supernatant is loaded onto a concanavalin-A column, previously equilibrated in TBS, 1 mM Ca2 Cl2, 0.1% Triton, 0.05% NaN3 and eluted with 0.2M α-methylmannoside. Fractions are pooled and loaded onto a heparin-agarose column. The flowthrough is collected and concentration on an Amicon YM 30 filter to a volume of approximately 5-10 mi. The concentrate is then applied to an S-300 column (500 ml) and 6 ml fractions are collected. The GP IIb IlIa containing fractions are collected, pooled, and stored at -80° C.
The purification of fibrinogen is conducted essentially as described by Lipinska et al., (J. Lab. Clin. Med. 507, [1974]). Briefly, a 0.3% w/v solution of human fibrinogen (Kabi #5302) is dissolved in 150 mM NaCl. Saturated (NH4)2 SO4 is added dropwise with stirring to the fibrinogen solution to obtain about 16% saturation. The precipitate is spun down in appropriate size bottles at 2000×g. The supernatant is decanted and the precipitate resuspended in 150 mM NaCl (approximately 50% of the original volume). NH4 SO4 is again added dropwise to obtain 16% saturation. The suspension is spun down and the precipitate is resuspended in Tris-saline in a minimal volume (approximately 5% of the original volume). Any remaining insoluble material is spun down at 2000 rpm in a Sorval type centrifuge and the fibrinogen supernatant is decanted and dialyzed overnight at 4° C. against Tris-saline. Characterization of the fibrinogen is by the Bradford protein assay, SDS-PAGE, and/or Western blotting using well known standard procedures.
Briefly, 96 well plates are coated (Type Nunc 1 Maxisorp™) with 10 μg/ml purified fibrinogen (100 μl/well), and allowed to stand overnight at 4° C. The plates are washed three times with PBS Tween (0.137M NaCl, 0.003M KCl, 0.008M Na2 HPO4, 0.001M KH2 PO4, pH 7.4 at room temperature, 0.05% Tween-20) and blocked for 1 to 2 hours at room temperature with 200 μl/well TNCNT (which is 0.5% BSA, 20mM Tris, pH 7.5 at room temperature, 120 mM NaCl, 0.2% NAN3, 2mM CaCl2, 0.05% Tween 20, 0.5% BSA [Calbiochem RIA grade or better]) on a plate shaker. The plates are again washed three times with PBS/Tween and then 50 μl of sample in TNCNT is added. The mixture is incubated for 15 minutes at room temperature on a plate shaker. The stock solution of purified GP IIb IIIa receptor from human platelets, (0.4-1.0 mg/ml GP IIb IIIa in 0.1% Triton X-100, 1 mM CaCl2, 20 mM Tris, 150 mM NaCl, 0.05% NaN3 in 0.3M N-acetyl glucosamine pH 7.5, stored at -70° C.), is reconstituted to about 40 μg/ml in TNCNT. Fifty μl of this diluted GP IIb IIIa is then added to each well and incubated on a plate shaker at room temperature. After one hour, the plates are washed four times with PBS/Tween and 100 μl of a polyclonal or monoclonal antibody specific for GP IIIa such as AP3 (1 μg/ml) (See e.g. Newman et al., Blood, 65:227-232 [1985]) in ELISA buffer (PBS, 0.5% BSA, 0.05% Tween 20, 0.01% Thimerasol) is added. After a one hour incubation at room temperature on a plate shaker, the samples are washed 4 times with PBS/Tween. One hundred μl of GAM-HRP (horse radish peroxidase conjugate of goat anti-mouse IgG [Pel-Freeze Cat. 715305-1] dissolved in ELISA buffer) previously diluted to 1:10,000 is then added and the samples are incubated 1 hour at room temperature on a plate shaker. […]

[1] = molecular target: human platelet rich plasma (PRP) (Homo sapiens, UniProt P05106+P08514); test: In Vitro Human Platelet Aggregation Assay; format: cell-based; conditions: for platelet aggregation inhibition potency, result in words: human platelet aggregation in vitro
Sequence of human platelet rich plasma (PRP) (P08514 32-1039): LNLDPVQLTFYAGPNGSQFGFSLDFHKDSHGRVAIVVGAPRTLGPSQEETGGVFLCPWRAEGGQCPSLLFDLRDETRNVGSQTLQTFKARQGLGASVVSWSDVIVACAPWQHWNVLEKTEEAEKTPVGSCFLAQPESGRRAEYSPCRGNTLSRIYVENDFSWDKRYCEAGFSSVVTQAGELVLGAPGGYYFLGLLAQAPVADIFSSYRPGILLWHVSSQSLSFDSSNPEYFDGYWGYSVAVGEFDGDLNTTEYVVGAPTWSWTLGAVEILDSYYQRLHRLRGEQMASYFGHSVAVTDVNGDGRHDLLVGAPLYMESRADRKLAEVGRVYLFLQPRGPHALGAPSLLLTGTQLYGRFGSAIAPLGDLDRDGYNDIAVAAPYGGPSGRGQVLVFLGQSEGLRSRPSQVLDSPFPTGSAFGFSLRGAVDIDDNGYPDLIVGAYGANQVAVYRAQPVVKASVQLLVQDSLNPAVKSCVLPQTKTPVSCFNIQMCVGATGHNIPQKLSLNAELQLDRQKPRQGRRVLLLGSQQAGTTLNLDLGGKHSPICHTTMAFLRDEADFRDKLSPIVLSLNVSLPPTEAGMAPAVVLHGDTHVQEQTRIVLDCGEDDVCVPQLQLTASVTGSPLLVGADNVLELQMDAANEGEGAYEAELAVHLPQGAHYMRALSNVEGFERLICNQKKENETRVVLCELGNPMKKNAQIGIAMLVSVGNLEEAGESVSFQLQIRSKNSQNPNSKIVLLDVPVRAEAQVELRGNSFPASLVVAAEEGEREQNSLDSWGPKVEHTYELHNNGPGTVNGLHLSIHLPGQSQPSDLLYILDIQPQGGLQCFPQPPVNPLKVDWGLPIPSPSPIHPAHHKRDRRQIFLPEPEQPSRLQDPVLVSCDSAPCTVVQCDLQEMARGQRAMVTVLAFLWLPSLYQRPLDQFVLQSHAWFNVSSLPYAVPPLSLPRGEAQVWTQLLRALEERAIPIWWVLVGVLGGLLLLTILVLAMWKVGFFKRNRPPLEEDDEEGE
Sequence of human platelet rich plasma (PRP) (P05106 27-788): as the sequence (P05106 27-788) above
Experimental: Platelet aggregation assays are performed in human platelet rich plasma (PRP). Fifty milliliters of whole human blood (9 parts) is drawn on 3.6% sodium citrate (1 part) from a donor who has not taken aspirin or related medications for at least two weeks. The blood is centrifuged at 160×g for 10 minutes at 22° C. and allowed to stand for 5 minutes after which the PRP is decanted. Platelet poor plasma (PPP) is isolated from the remaining blood after centrifugation at 2000×g for 25 minutes. The platelet count of the PRP is diluted to about 300,000 platelets per microliter with PPP.
A 225 μl aliquot of PRP plus 25 μl of either a dilution of the test inhibitor sample or a control (PBS) is incubated for 5 minutes in a Chrono-log Whole Blood Aggregometer at 25° C. An aggregating agent (collagen, 1 μg/ml; U46619, 100 ng/ml; or ADP, 17 μM) is added and the transmission is recorded.

[2] = human PRP, read-out: Human Platelet Aggregation IC50

SMILES | IC50 (GP IIb IIIa) [nM] | IC50 [1, 2] | platelet aggregation inhibition potency, result in words [1] | IC50 ([1]; read-out: platelet aggregation inhibition IC50) [nM]
N=C(N)NCCC[C@@H]1NC(=O)[C@@H](Cc2ccc(O)cc2)NC(=O)C(CCCCN)SC[C@@H](C(=O)O)NC(=O)[C@H](CC(=O)O)NC(=O)CNC1=O (single isomer, unassigned) [9/10, cyclo-S-2-L-(6-aminocaproyl)-Lys--dTyr--Arg--Gly--Asp--Cys--OH] | 5.3 | 498 nM |  | 
N=C(N)NCCC[C@@H]1NC(=O)[C@@H](Cc2ccc(O)cc2)NC(=O)C(CCCCN)SC[C@@H](C(=O)O)NC(=O)[C@H](CC(=O)O)NC(=O)CNC1=O (single isomer, unassigned) [9/11, cyclo-S-2-L-(6-aminocaproyl)-Lys--dTyr--Arg--Gly--Asp--Cys--OH] | 14.3 | 3180 nM |  | 
N=C(N)NCCC[C@H](NC(=O)[C@@H]1CSCC(=O)N[C@H](Cc2ccc(O)cc2)C(=O)N[C@@H](CCCNC(=N)N)C(=O)NCC(=O)N[C@@H](CC(=O)O)C(=O)N1)C(N)=O [7/1, cyclo-S-acetyl-dTyr--Arg--Gly--Asp--Cys--Arg--NH2] ({CH2CO}-[dY]RGDCR-NH2; thioether N-5) | 10 | 80 nM and 83 nM | equipotent | 
N=C(N)NCCC[C@@H]1NC(=O)[C@@H](Cc2ccc(O)cc2)NC(=O)CSC[C@@H](C(=O)N[C@H](CCCNC(=N)N)C(N)=O)NC(=O)[C@H](CC(=O)O)NC(=O)CNC1=O [7/2, cyclo-S-acetyl-dTyr--Arg--Gly--Asp--Cys--dArg--NH2] ({CH2CO}-[dY]RGDC[dR]-NH2; thioether N-5) | 13.5 |  |  | 
N=C(N)NCCC[C@@H]1NC(=O)[C@@H](Cc2ccc(O)cc2)NC(=O)CSC[C@@H](C(=O)N[C@@H](CCCCN)C(N)=O)NC(=O)[C@H](CC(=O)O)NC(=O)CNC1=O [7/3, cyclo-S-acetyl-dTyr--Arg--Gly--Asp--Cys--Lys--NH2] ({CH2CO}-[dY]RGDCK-NH2; thioether N-5) | 17 | 320 nM |  | 
N=C(N)NCCC[C@@H]1NC(=O)[C@@H](Cc2ccc(O)cc2)NC(=O)CSC[C@@H](C(=O)N[C@H](CCCCN)C(N)=O)NC(=O)[C@H](CC(=O)O)NC(=O)CNC1=O [7/4, cyclo-S-acetyl-dTyr--Arg--Gly--Asp--Cys--dLys--NH2] ({CH2CO}-[dY]RGDC[dK]-NH2; thioether N-5) | 8.3 |  |  | 
N=C(N)NCCC[C@@H]1NC(=O)[C@@H](Cc2ccc(O)cc2)NC(=O)CSC[C@@H](C(=O)N[C@@H](CCCN)C(N)=O)NC(=O)[C@H](CC(=O)O)NC(=O)CNC1=O [7/5, cyclo-S-acetyl-dTyr--Arg--Gly--Asp--Cys--Orn--NH2] ({CH2CO}-[dY]RGDC[Orn]-NH2; thioether N-5) | 11 |  |  | 
N=C(N)NCCC[C@@H]1NC(=O)[C@@H](Cc2ccc(O)cc2)NC(=O)CSC[C@@H](C(=O)N[C@H](CCCN)C(N)=O)NC(=O)[C@H](CC(=O)O)NC(=O)CNC1=O [7/6, cyclo-S-acetyl-dTyr--Arg--Gly--Asp--Cys--dOrn--NH2] ({CH2CO}-[dY]RGDC[dOrn]-NH2; thioether N-5) | 10.5 | 1180 nM |  | 
N=C(N)NCCC[C@H](NC(=O)[C@H](Cc1ccc(O)cc1)NC(=O)[C@@H]1CSCC(=O)N[C@H](Cc2ccc(O)cc2)C(=O)N[C@@H](CCCNC(=N)N)C(=O)NCC(=O)N[C@@H](CC(=O)O)C(=O)N1)C(N)=O [7/7, cyclo-S-acetyl-dTyr--Arg--Gly--Asp--Cys--Tyr--Arg--NH2] ({CH2CO}-[dY]RGDCYR-NH2; thioether N-5) | 8.9 |  |  | 
CC1(C)SCC(=O)N[C@H](Cc2ccc(O)cc2)C(=O)N[C@@H](CCCCN)C(=O)NCC(=O)N[C@@H](CC(=O)O)C(=O)N[C@@H]1C(=O)N[C@@H](CCCNC(=N)N)C(N)=O [7/16, cyclo-S-acetyl-dTyr--Lys--Gly--Asp--Pen--Arg--NH2] ({CH2CO}-[dY]KGD[Pen]R-NH2; thioether N-5) | 150 | 500 nM and 506 nM |  | 
CC1(C)SCC(=O)N[C@H](Cc2ccc(O)cc2)C(=O)N[C@@H](CCCCN)C(=O)NCC(=O)N[C@@H](CC(=O)O)C(=O)N[C@@H]1C(=O)N[C@@H](CCCCN)C(N)=O [7/17, cyclo-S-acetyl-dTyr--Lys--Gly--Asp--Pen--Lys--NH2] ({CH2CO}-[dY]KGD[Pen]K-NH2; thioether N-5) | 238 | 90 nM |  | 
N=C(N)NCCC[C@@H]1NC(=O)[C@@H](Cc2ccc(O)cc2)NC(=O)CSC[C@@H](C(=O)N[C@@H](CCC(N)=O)C(N)=O)NC(=O)[C@H](CC(=O)O)NC(=O)CNC1=O [7/27, cyclo-S-acetyl-dTyr--Arg--Gly--Asp--Cys--Gln--NH2] ({CH2CO}-[dY]RGDCQ-NH2; thioether N-5) | 3.1 | 1760 nM | did not significantly improve potency | 
N=C(N)NCCC[C@@H]1NC(=O)[C@@H](Cc2ccc(O)cc2)NC(=O)CSC[C@@H](C(=O)NCCCCC(=O)O)NC(=O)[C@H](CC(=O)O)NC(=O)CNC1=O [7/28, cyclo-S-(1-5)-dTyr--Arg--Gly--Asp--Cys--X (X = aminovaleric acid)] ({CH2CO}-[dY]RGDC[Ava]-OH; thioether N-5) | 70 |  |  | 52200
N=C(N)NCCC[C@@H]1NC(=O)[C@@H](Cc2ccc(O)cc2)NC(=O)CSC[C@@H](C(=O)O)NC(=O)[C@H](CC(=O)O)NC(=O)CNC1=O [7/46, cyclo-S-acetyl-dTyr--Arg--Gly--Asp--Cys--OH] ({CH2CO}-[dY]RGDC-OH; thioether N-5) | 3.2 | 150 nM |  | 
N=C(N)NCCC[C@@H]1NC(=O)[C@@H](Cc2ccc(O)cc2)NC(=O)CSC[C@@H](C(=O)NCCCCN)NC(=O)[C@H](CC(=O)O)NC(=O)CNC1=O [8/12, cyclo-S-acetyl-dTyr--Arg--Gly--Asp--Cys--NH--X (X = butylamine)] ({CH2CO}-[dY]RGDC-{NH(CH2)4NH2}; thioether N-5) | 10 | 390 nM |  | 
N=C(N)NCCC[C@@H]1NC(=O)[C@@H](Cc2ccc(O)cc2)NC(=O)CSC[C@@H](C(=O)NCCCCCN)NC(=O)[C@H](CC(=O)O)NC(=O)CNC1=O [8/13, cyclo-S-acetyl-dTyr--Arg--Gly--Asp--Cys--NH--X (X = pentylamine)] ({CH2CO}-[dY]RGDC-{NH(CH2)5NH2}; thioether N-5) | 9 | 590 nM |  | 
